# Like-named read-outs stand apart in the source and are kept apart here. Where no end group is shown, it is not given here.
# What was measured:
# [1] = system: mitochondria of C. albicans biofilm cells; assay: Mitochondrial activity, MitoTracker Orange / MitoTracker Green; format: cell-based, Candida albicans; details: 50 μM ΔM3, 6.2 μM ΔM4 or 2.7 μM amphotericin B, 3 h, 24-h biofilm
# Procedure: The 24-h biofilms of C. albicans were incubated with 100 μl of ΔM3 (50 μM) or ΔM4 (6.2 μM) and amphotericin B (2.7 μM; positive control) solutions in RPMI 1640 medium for 3 h at 37°C. After that time, biofilms were washed with 200 μl of PBS and incubated for 30 min at 37°C with MitoTracker Green TM dye (Invitrogen) at final concentration of 500 nM, used to detect the change in total mitochondrial mass, and MitoTracker Orange (500 nM), used to detect the change in mitochondrial activity. Mitochondria were imaged in the FITC and TRIC channel, using the Olympus IX73 microscope.
# C. albicans cells = assay: microbe, parasite or virus in culture; details: for IC90: 24 h; for FICI: combination of peptide with caspofungin
# Procedure: To determine the viability of C. albicans, the 2,3-bis(2-methoxy-4-nitro-5-sulfo-phenyl)-2H-tetrazolium-5-carboxanilide (XTT) (ThermoFisher Scientific) reduction assay is used as a routine tool for quantitative measurement of fungal metabolic activity, growth and response to antifungal treatment ([van Dijck et al., 2018]). The tests were performed as described ([Kulig et al., 2022]) with some modifications. Briefly, 100 μl of RPMI 1640 medium without phenol red (Biowest) and 50 μl of XTT solution (1 mg/ml; Invitrogen, Waltham, MA, United States), freshly activated with phenazine methosulfate (5 μg/ml; Sigma-Aldrich) in the same medium, were added to C. albicans cells. After 40 min of incubation at 37°C in the dark, 100 μl of supernatants were transferred to the wells of a new 96-well microplate (Sarstedt, Nümbrecht, Germany). The absorbance of the formazan product was measured spectrophotometrically at 450 nm using a Synergy H1 microplate reader (BioTek Instruments, Winooski, VT, United States).
# The following concentrations of peptides and antifungal drugs were used for the assay: ΔM3 0.4–50 μM, ΔM4 0.4–3.1 μM, amphotericin B 0.2–1.6 μM, fluconazole 0.2–1.6 μM and caspofungin 0.003–0.2 μM (the latter two from Sigma-Aldrich). The combinatory effects of each peptide and each conventional antimycotic drug were tested by the previously described checkerboard method ([Guo et al., 2008]; [Do Nascimento Dias et al., 2020]) with minor modification. C. albicans cells (3 × 10^2) were suspended in 100 μl of RPMI 1640 medium, containing peptide, drug, or their combination, in wells of Falcon® 96-well clear flat bottom TC-treated culture microplate (Corning). Fungal cells only in RPMI 1640 medium without peptides and drugs served as a control. Incubation was carried out for 24 h at 37°C in an atmosphere of 5% CO2 and 95% humidity without shaking. After this time, cell viability was measured using an XTT reduction assay. The analysis was performed in biological triplicate. For each combination, Fractional Inhibitory Concentration Index (FICI) was determined using the following formula: […]
# Where FICa is the ratio of IC90 value for the compound a in combination to the IC90 value of the agent a alone; FICb is the ratio of IC90 value for compound b in combination to the IC90 value of the agent b alone.
# The FICI ≤0.5 was interpreted as a synergistic effect, 0.5< FICI ≤1.0 as additive, 1.0< FICI ≤2.0 as indifferent and FICI >2.0 as antagonism.
# [2] = system: cytosolic Ca2+ in C. albicans biofilm; assay: Cytosolic Ca2+, Fura-2 Calcium Flux Assay; format: cell-based, Candida albicans; details: 10 mM, positive control, 3 h, 24-h biofilm
# Procedure: Accumulation of cytosolic Ca^2+ was measured with the Fura-2 Calcium Flux Assay Kit (Abcam, Cambridge, Great Britain). The 24-h biofilms of C. albicans were incubated for 3 h with 100 μl of ΔM3 (25 μM and 50 μM) or ΔM4 (6.2 μM and 12.5 μM) and H2O2 (10 mM; positive control) solutions prepared in RPMI 1640. The concentration of peptides was chosen close to those for which the effect of apoptosis was obtained in experiments analyzing the activity of metacaspases. After incubation, biofilms were washed with Hanks Balanced Salt Solution (Biowest) with Pluronic® F127 Plus (Abcam). Then 100 μl of Fura-2 AM solution was added to the biofilms and incubated for 1 h at room temperature. The fluorescence was then measured using a Synergy H1 microplate reader with excitation at 340 nm and emission at 510 nm.
# human erythrocytes = details: cited from earlier work
# Description: Promising antimicrobial properties were also previously reported for the cecropin D-like peptide (UniProtKB accession number: P85210) from the greater wax moth Galleria mellonella ([Cytrynska et al., 2007]). Modification of particular residues resulting in an increase of peptide charge and basic residues on the polar face of the molecule compared to a neutral wild-type peptide, enhanced the antibacterial activity of peptides derived from the cecropin D-like natural sequence. One such type of derivative was the synthetic cationic peptide ΔM2 with 39 amino acid residues and a charge of +9, which ...
# [3] = Candida albicans, read-out: IC90, compound acting alone
# [4] = drug (compound a) in combination with ΔM3
# [5] = drug (compound a) in combination with ΔM4
Molecule,IC90 (C. albicans cells; [3]) [µM],FICa (C. albicans cells; [4]),FICa (C. albicans cells; [5]),IC90 (C. albicans cells; cells) [µM],FICI (C. albicans cells),other results
"C[C@@H]1[C@H](O)[C@@H](C)/C=C/C=C/C=C/C=C/C=C/C=C/C=C/[C@H](O[C@@H]2O[C@H](C)[C@@H](O)[C@H](N)[C@@H]2O)C[C@@H]2O[C@](O)(C[C@@H](O)C[C@@H](O)[C@H](O)CC[C@@H](O)C[C@@H](O)CC(=O)O[C@H]1C)C[C@H](O)[C@H]2C(=O)O [Amphotericin B, amphotericin B]",1.6,0.5,0.5,,,mitochondrial activity (MitoTracker Orange fluorescence) [1]: partial loss of mitochondrial activity
"CC[C@H](C)C[C@H](C)CCCCCCCCC(=O)N[C@H]1C[C@@H](O)[C@@H](NCCN)NC(=O)[C@@H]2[C@@H](O)CCN2C(=O)[C@H]([C@H](O)CCN)NC(=O)[C@H]([C@H](O)[C@@H](O)c2ccc(O)cc2)NC(=O)[C@@H]2C[C@@H](O)CN2C(=O)[C@H]([C@@H](C)O)NC1=O [Caspofungin, caspofungin]",0.1,0.03,0.12,,,
"OC(Cn1cncn1)(Cn1cncn1)c1ccc(F)cc1F [Fluconazole, fluconazole]",0.8,0.25,0.25,,,IC90 in combination with each peptide compared to administered alone (C. albicans cells; combination with ΔM3 or ΔM4): four-fold lower
OO [H2O2],,,,,,increase in cytosolic Ca2+ concentration [2]: up to 50%
NFFKRIRRAGKRIRKAIISA [ΔM3],,,,50,0.062,hemolytic activity (human erythrocytes): low
NFFKRIRRAWKRIWKWIYSA [ΔM4],,,,3.1,0.370,

# — article PMC9880178, “Cecropin D-derived synthetic peptides in the fight against Candida albicans cell filamentation and biofilm formation” (Frontiers in Microbiology, 2023)
